Where two headings read alike, the source gives them in different places.
Molecular target: T1, sproBACE1 (soluble human BACE1) (Homo sapiens, UniProt P56817)
T1 construct: sBACE1, corresponding to amino acids 1-454; made in house; host or cells: Sf9 insect cells (baculovirus); purified from culture supernatant
Experiment: Peptide hydrolysis assay (HTRF, EuK-biotin labeled APPsw substrate)
Assay type: biochemical
Details: 7 nM sproBACE1, pH 5.0, 3 hr at 30° C.
Text: A predicted soluble form of human BACE1 (sBACE1, corresponding to amino acids 1-454) was generated from the full length BACE1 cDNA (full length human BACE1 cDNA in pcDNA4/mycHisA construct; University of Toronto) by PCR using the advantage-GC cDNA PCR kit (Clontech, Palo Alto, Calif.). A HindIII/Pmel fragment from pcDNA4-sBACE1 myc/His was blunt ended using Klenow and subcloned into the Stu I site of pFASTBACI(A) (Invitrogen). A sBACE1 mycHis recombinant bacmid was generated by transposition in DH10Bac cells(GIBCO/BRL). Subsequently, the sBACE1 mycHis bacmid construct was transfected into sf9 cells using CellFectin (Invitrogen, San Diego, Calif.) in order to generate recombinant baculovirus. Sf9 cells were grown in SF 900-II medium (Invitrogen) supplemented with 3% heat inactivated FBS and 0.5× penicillin/streptomycin solution (Invitrogen). Five milliliters of high titer plaque purified sBACEmyc/His virus was used to infect 1 L of logarithmically growing sf9 cells for 72 hours. Intact cells were pelleted by centrifugation at 3000×g for 15 minutes. The supernatant, containing secreted sBACE1, was collected and diluted 50% v/v with 100 mM HEPES, pH 8.0. The diluted medium was loaded onto a Q-sepharose column. The Q-sepharose column was washed with Buffer A (20 mM HEPES, pH 8.0, 50 mM NaCl).
Proteins, were eluted from the Q-sepharose column with Buffer B (20 mM HEPES, pH 8.0, 500 mM NaCl). The protein peaks from the Q-sepharose column were pooled and loaded onto a Ni-NTA agarose column. The Ni-NTA column was then washed with Buffer C (20 mM HEPES, pH 8.0, 500 mM NaCl). Bound proteins were then eluted with Buffer D (Buffer C+250 mM imidazole). Peak protein fractions as determined by the Bradford Assay (Biorad, Calif.) were concentrated using a Centricon 30 concentrator (Millipore). sBACE1 purity was estimated to be ˜90% as assessed by SDS-PAGE and Commassie Blue staining.
The inhibitor, 25 nM EuK-biotin labeled APPsw substrate (EuK-KTEEISEVNLDAEFRHDKC-biotin; CIS-Bio International, France), 5 μM unlabeled APPsw peptide (KTEEISEVNLDAEFRHDK; American Peptide Company, Sunnyvale, Calif.), 7 nM sproBACE1, 20 mM PIPES pH 5.0, 0.1% Brij-35 (protein grade, Calbiochem, San Diego, Calif.), and 10% glycerol were preincubated for 30 min at 30° C. […] HTRF measurements were made on a Packard Discovery® HTRF plate reader using 337 nm laser light to excite the sample followed by a 50 μs delay and simultaneous measurements of both 620 nm and 665 nm emissions for 400 μs.
IC50 determinations for inhibitors, (I), were determined by measuring the percent change of the relative fluorescence at 665 nm divided by the relative fluorescence at 620 nm, (665/620 ratio), in the presence of varying concentrations of I and a fixed concentration of enzyme and substrate. […]

[1] = read-out: Activity (IC50 classification)

T1 sequence (P56817 22-454): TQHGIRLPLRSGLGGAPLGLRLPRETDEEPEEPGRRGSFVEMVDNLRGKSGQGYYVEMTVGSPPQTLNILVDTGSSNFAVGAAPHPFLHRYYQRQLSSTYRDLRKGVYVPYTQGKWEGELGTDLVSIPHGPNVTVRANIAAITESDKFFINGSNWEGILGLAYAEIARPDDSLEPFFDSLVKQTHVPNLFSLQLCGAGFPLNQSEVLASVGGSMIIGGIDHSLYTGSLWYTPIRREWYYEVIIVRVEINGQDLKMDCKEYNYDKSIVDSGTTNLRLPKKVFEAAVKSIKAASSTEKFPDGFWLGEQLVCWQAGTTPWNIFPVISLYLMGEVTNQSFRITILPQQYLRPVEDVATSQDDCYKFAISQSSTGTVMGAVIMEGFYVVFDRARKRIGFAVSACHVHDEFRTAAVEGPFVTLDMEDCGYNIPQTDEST

| IC50 [1] | SMILES | also measured |
| --- | --- | --- |
| – | O=C1N[C@H]([C@H](O)[C@@H]2NCCN(Cc3ccccc3)C2=O)Cc2cc(F)cc(c2)OCCCCN2CC1CC2=O (stereo partly shown) [drawing 69] | IC50 (read-out: IC50): 4 nM |
| 2 to 1000 nM | O=C1N[C@H]([C@H](O)[C@@H]2NCCN(Cc3ccccc3)C2=O)Cc2cc(F)cc(c2)OCCCCN2CC1CC2=O (stereo partly shown) [drawing 72] | – |
| 1000 to 10000 nM | CCCN1CCCCOc2ccc(cc2)C[C@@H](C(O)C2NCCN(Cc3ccccc3)C2=O)NC(=O)c2cccc(c2)C1=O (stereo partly shown) | – |
| – | CCCN1CCCCOc2cc(F)cc(c2)CC(C(O)C2NCCN(Cc3ccccc3)C2=O)NC(=O)c2cccc(c2)C1=O (stereo not shown) | Activity (IC50 classification): A or B |

Source: US7652003B2, “Macrocyclic β-secretase inhibitors” (Schering-Plough Corporation, priority 2004, dated 2010)
